Experimental data taken from ChEMBL document CHEMBL5209586, “Membrane potential-based assay for SLC34A1 using HEK293 JumpIn SLC34A1 OE cells” (2022).

Biological target: T1, Sodium-dependent phosphate transport protein 2A (Homo sapiens, UniProt Q06495)
T1 sequence (Q06495 whole entry): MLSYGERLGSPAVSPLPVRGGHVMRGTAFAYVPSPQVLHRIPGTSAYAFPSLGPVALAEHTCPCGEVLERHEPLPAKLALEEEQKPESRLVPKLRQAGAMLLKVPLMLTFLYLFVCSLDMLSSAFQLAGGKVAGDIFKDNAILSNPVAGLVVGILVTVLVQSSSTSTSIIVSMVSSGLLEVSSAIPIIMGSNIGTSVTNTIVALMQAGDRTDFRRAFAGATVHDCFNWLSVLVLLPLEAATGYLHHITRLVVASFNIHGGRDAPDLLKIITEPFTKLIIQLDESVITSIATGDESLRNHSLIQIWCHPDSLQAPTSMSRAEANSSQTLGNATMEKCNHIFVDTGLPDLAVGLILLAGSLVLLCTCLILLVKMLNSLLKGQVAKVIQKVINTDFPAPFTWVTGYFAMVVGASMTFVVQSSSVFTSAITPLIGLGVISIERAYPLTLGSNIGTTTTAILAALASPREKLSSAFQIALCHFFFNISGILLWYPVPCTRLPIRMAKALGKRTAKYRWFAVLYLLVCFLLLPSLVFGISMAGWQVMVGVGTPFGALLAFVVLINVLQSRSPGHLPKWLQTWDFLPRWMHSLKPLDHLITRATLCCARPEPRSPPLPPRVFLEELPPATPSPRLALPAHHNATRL
Description: Substrate uptake by the Sodium-Dependent Phosphate Transport Protein 2A (NPT2a, SLC34A1) as assessed by the fluorescent FLIPR membrane potential dye in HEK-293 JumpIN-SLC34A1 cells (PubChem AID: 1794813)

EC50 [µM] | Compound
39 | O=P([O-])(O)O.[K+] [POTASSIUM PHOSPHATE, MONOBASIC]
32 | O=P([O-])([O-])O.[Na+].[Na+] [SODIUM PHOSPHATE, DIBASIC, ANHYDROUS]
